Assay results taken from patent publication US11390609B2, “Rho-associated protein kinase inhibitor, pharmaceutical composition comprising same, and preparation method and use thereof” (BEIJING TIDE PHARMACEUTICAL CO., LTD., priority 2017, dated 2022).

Experiments:
ROCK2 = ROCK2 (Homo sapiens, UniProt O75116); experiment: ROCK2 kinase IC50 assay (CISBIO HTRF KinEASE-STK S2 kit); assay type: biochemical; details: incubated at room temperature for 2 hours
Outline: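 HTRF KinEASE-STK S2 format with recombinant ROCK2 (1.4 ng per well), STK-S2 substrate and ATP from 5× working solutions of 1.5 μM each, run 2 h at room temperature. Nine-point dilutions from 10000 nM top concentration; 665/615 nm emission ratio normalised to no-compound and no-kinase controls, curve-fitted for IC50.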

ROCK1 = ROCK1 (Homo sapiens (Human), UniProt Q13464); experiment: ROCK1 kinase IC50 assay (biological test method similar to the ROCK2 assay); assay type: biochemical
Chain of ROCK1 (Q13464 whole entry, species assumed): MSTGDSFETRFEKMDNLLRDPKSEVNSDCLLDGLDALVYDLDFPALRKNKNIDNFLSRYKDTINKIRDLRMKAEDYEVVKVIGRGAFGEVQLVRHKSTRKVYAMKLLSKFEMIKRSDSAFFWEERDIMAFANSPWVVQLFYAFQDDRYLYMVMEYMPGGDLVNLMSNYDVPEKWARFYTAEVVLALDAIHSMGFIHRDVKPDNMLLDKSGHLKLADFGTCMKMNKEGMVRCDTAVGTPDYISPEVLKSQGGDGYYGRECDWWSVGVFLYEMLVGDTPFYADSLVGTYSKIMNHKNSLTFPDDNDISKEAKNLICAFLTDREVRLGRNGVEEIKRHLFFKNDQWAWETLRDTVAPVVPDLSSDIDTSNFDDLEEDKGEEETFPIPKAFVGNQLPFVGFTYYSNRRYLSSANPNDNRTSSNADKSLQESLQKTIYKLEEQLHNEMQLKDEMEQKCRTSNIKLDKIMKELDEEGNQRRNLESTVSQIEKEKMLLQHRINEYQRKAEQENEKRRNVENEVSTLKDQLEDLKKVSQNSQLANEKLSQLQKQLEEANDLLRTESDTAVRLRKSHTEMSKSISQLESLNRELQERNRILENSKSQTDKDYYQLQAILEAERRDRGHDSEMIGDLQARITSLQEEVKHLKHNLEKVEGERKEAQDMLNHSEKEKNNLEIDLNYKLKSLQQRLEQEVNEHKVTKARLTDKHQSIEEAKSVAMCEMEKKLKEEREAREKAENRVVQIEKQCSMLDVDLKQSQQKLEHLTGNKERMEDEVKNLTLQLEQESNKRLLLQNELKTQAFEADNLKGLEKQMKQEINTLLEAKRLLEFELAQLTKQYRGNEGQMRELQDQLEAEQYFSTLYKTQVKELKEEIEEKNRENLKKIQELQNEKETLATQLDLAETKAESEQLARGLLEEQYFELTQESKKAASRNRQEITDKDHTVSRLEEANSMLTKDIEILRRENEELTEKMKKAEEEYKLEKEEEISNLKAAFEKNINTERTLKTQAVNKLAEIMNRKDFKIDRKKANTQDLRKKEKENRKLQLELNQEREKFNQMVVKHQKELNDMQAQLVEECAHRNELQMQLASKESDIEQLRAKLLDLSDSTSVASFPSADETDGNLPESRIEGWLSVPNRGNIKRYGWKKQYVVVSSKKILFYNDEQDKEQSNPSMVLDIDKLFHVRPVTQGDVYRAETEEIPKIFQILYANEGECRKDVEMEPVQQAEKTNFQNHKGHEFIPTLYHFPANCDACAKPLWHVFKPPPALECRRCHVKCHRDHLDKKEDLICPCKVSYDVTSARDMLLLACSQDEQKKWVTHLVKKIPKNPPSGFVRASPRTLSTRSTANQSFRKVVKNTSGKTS
Outline: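 Compound dilution series (9 concentrations, top solution 10000 nM, DMSO-containing buffer) incubated 2 h at room temperature with kinase, STK-S2 substrate and ATP (5× working solutions of 1.5 µM each). Phosphorylation detected by HTRF (665/615 nm emission ratio) after 1 h; inhibition relative to full-reaction and kinase-free wells, fitted for IC50.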

IC50 (ROCK2) [nM]	IC50 (ROCK1) [nM]	Compound
29	> 10000	O=C(c1cc2ccc(-c3nccc(Nc4ccc(-c5cn[nH]c5)cc4)n3)cc2[nH]1)N1CC(F)C1 [TDI01455, (6-(4-((4-(1H-pyrazol-4-yl)phenyl)amino)pyrimidin-2-yl)-1H-indol-2-yl)(3-fluoroazetidin-1-yl)methanone]
203	> 10000	CC(C)NC(=O)c1cc2ccc(-c3nc(Nc4ccc(-c5cn[nH]c5)cc4)c4sccc4n3)cc2s1 [TDI01439, 6-(4-((4-(1H-pyrazol-4-yl)phenyl)-amino)thieno-[3,2-d]pyrimidin-2-yl)-N-isopropyl-benzo-[b]thiophene-2-carboxamide]
11	1000	Cn1c(C(=O)Nc2ccncc2Cl)cc2ccc(-c3nccc(Nc4ccc5[nH]ncc5c4)n3)cc21 [TDI01841, 6-(4-((1H-indazol-5-yl)amino)-pyrimidin-2-yl)-N-(3-chloropyridin-4-yl)-1-methyl-1H-indole-2-carboxamide]
86	1890	Cn1c(C(=O)N2CC(O)(C(F)(F)F)C2)cc2ccc(-c3nccc(Nc4ccc(-c5cn[nH]c5)cc4)n3)cc21 [TDI01523, (6-(4-((4-(1H-pyrazol-4-yl)phenyl)amino)pyrimidin-2-yl)-1-methyl-1H-indol-2-yl)(3-hydroxy-3-(trifluoromethyl)azetidin-1-yl)methanone]
57	> 10000	O=C(C1CC(F)(F)C1)N1Cc2ccc(-c3nc(Nc4ccc(-c5cn[nH]c5)cc4)c4cc[nH]c4n3)cc2C1 [TDI01565, (5-(4-((4-(1H-pyrazol-4-yl)phenyl)amino)-7H-pyrrolo[2,3-d]pyrimidin-2-yl)isoindolin-2-yl)(3,3-difluorocyclobutyl)methanone]
32	8260	O=C(c1cc2ccc(-c3nccc(Nc4ccc(-c5cn[nH]c5)cc4)n3)cc2[nH]1)N1CCC(C(F)(F)F)C1 (centres unmarked) [TDI01444, (6-(4-((4-(1H-pyrazol-4-yl)phenyl)amino)pyrimidin-2-yl)-1H-indol-2-yl)(3-(trifluoromethyl)pyrrolidin-1-yl)methanone]
78	3030	Cn1c(C(=O)N2C[C@@H](O)[C@H](F)C2)cc2ccc(-c3nccc(Nc4ccc(-c5cn[nH]c5)cc4)n3)cc21 [TDI01518, (6-(4-((4-(lH-pyrazol-4-yl)phenyl)amino)pyrimidin-2-yl)-1-methyl-1H-indol-2-yl)((3R,4R)-3-fluoro-4-hydroxypyrrolidin-1-yl)methanone]
90	> 10000	COc1cnc(-c2ccc3cc(C(=O)Nc4ccnnc4)[nH]c3c2)nc1Nc1ccc2[nH]ncc2c1 [TDI01813, 6-(4-((1H-indazol-5-yl)amino)-5-methoxy-pyrimidin-2-yl)-N-(pyridazin-4-yl)-1H-indole-2-carboxamide]
169	> 10000	O=C(C1CC(F)(F)C1)N1CCc2ccc(-c3nccc(Nc4ccc5[nH]ncc5c4)n3)cc2C1 [TDI01575, (7-(4-((1H-indazol-5-yl)amino)pyrimidin-2-yl)-3,4-dihydroisoquinolin-2(1H)-yl)(3,3-difluorocyclobutyl) methanone]
216	> 10000	O=C(C1CC(F)(F)C1)N1Cc2ccc(-c3ncc(F)c(Nc4ccc(-c5cn[nH]c5)cc4F)n3)cc2C1 [TDI01598, (3,3-difluorocyclobutyl)(5-(5-fluoro-4-((2-fluoro-4-(1H-pyrazol-4-yl)phenyl)amino)pyrimidin-2-yl)isoindolin-2-yl)methanone]
385	> 10000	CC(O)C(=O)N1Cc2ccc(-c3nccc(Nc4ccc(-c5cn[nH]c5)cc4)n3)cc2C1 (centres unmarked) [TDI01989, 1-(5-(4-((4-(1H-pyrazol-4-yl)phenyl)amino)pyrimidin-2-yl)isoindolin-2-yl)-2-hydroxypropan-1-one]
45	> 10000	O=C(C1CC(F)(F)C1)N1Cc2ccc(-c3nccc(Nc4ccc5[nH]ncc5c4)n3)cc2C1 [TDI01967, (5-(4-((1H-indazol-5-yl)amino)pyrimidin-2-yl)isoindolin-2-yl)(3,3-difluorocyclobutyl) methanone]
247	> 10000	O=C(c1cc2ccc(-c3nccc(Nc4ccc(-c5cn[nH]c5)cc4)n3)cc2[nH]1)N1CC(O)C1 [TDI01437, (6-(4-((4-(1H-pyrazol-4-yl)phenyl)amino)pyrimidin-2-yl)-1H-indol-2-yl)(3-hydroxyazetidin-1-yl)methanone]
15	> 10000	Cn1c(C(=O)N2C[C@@H](O)[C@@H](F)C2)cc2ccc(-c3nccc(Nc4ccc(-c5cn[nH]c5)cc4)n3)cc21 [TDI01520, (6-(4-((4-(1H-pyrazol-4-yl)phenyl)amino)pyrimidin-2-yl)-1-methyl-1H-indol-2-yl)((3S,4R)-3-fluoro-4-hydroxypyrrolidin-1-yl)methanone]
172	> 10000	CN(C(=O)c1cc2ccc(-c3nccc(Nc4ccc5[nH]ncc5c4)n3)cc2s1)C1CCOC1 (centres unmarked) [TDI01392, 6-(4-((1H-indazol-5-yl)amino)pyrimidin-2-yl)-N-methyl-N-(tetrahydrofuran-3-yl)ben-zo[b]thiophene-2-carboxamide]
103	> 10000	Cn1c(C(=O)N2CC(F)(F)C2)cc2ccc(-c3nc(Nc4ccc(-c5cn[nH]c5)cc4)c4cccn4n3)cc21 [TDI01948, (6-(4-((4-(1H-pyrazol-4-yl)phenyl)amino)pyrrolo[2,1-f][1,2,4]triazin-2-yl)-1-methyl-1H-indol-2-yl)(3,3-difluoroazetidin-1-yl)methanone]
44	> 10000	COc1cc(Nc2ccnc(-c3ccc4cc(-c5nccs5)[nH]c4c3)n2)ccc1-c1cn[nH]c1 [TDI01912, N-(3-methoxy-4-(1H-pyrazol-4-yl)phenyl)-2-(2-(thiazol-2-yl)-1H-indol-6-yl)pyrimidin-4-amine]
30	1420	Cn1c(C(=O)N2CC(F)(CF)C2)cc2ccc(-c3nccc(Nc4ccc(-c5cn[nH]c5)cc4)n3)cc21 [TDI01524, (6-(4-((4-(1H-pyrazol-4-yl)phenyl)amino)pyrimidin-2-yl)-1-methyl-1H-indol-2-yl)(3-fluoro-3-(fluoromethyl)azetidin-1-yl)methanone]
453	> 10000	O=C(c1cc2ccc(-c3nc(Nc4ccc(-c5cn[nH]c5)cc4)c4sccc4n3)cc2[nH]1)N1CCOCC1 [TDI01450, (6-(4-((4-(1H-pyrazol-4-yl)phenyl)amino)thieno [3,2-d]pyrimidin-2-yl)-1H-indol-2-yl)(morpholino)methanone]
46	> 10000	c1cnc(-c2cc3ccc(-c4nccc(Nc5ccc(-c6cn[nH]c6)cc5)n4)cc3[nH]2)nc1 [TDI01870, N-(4-(1H-pyrazol-4-yl)phenyl)-2-(2-(pyrimidin-2-yl)-1H-indol-6-yl)pyrimidin-4-amine]
382	> 10000	CC(C)NC(=O)c1cc2ccc(-c3nc(Nc4ccc(-c5cn[nH]c5)cc4)c4ccccc4n3)cc2[nH]1 [TDI01862, 6-(4-((4-(1H-pyrazol-4-yl)phenyl)-amino)-quinazolin-2-yl)-N-isopropyl-1H-indole-2-carboxamide]
266	> 10000	O=C1c2cc(-c3ncc(F)c(Nc4ccc(-c5cn[nH]c5)cc4)n3)ccc2CN1CC1CC(F)(F)C1 [TDI01590, 6-(4-((4-(1H-pyrazol-4-yl)phenyl)amino)-5-fluoropyrimidin-2-yl)-2-((3,3-difluorocyclobutyl)methyl)isoindolin-1-one]
59	> 10000	Cn1c(C(=O)N2CC(F)(F)C2)cc2ccc(-c3ncc(Cl)c(Nc4ccc(-c5cn[nH]c5)cc4)n3)cc21 [TDI01949, (6-(4-((4-(1H-pyrazol-4-yl)phenyl)amino)-5-chloropyrimidin-2-yl)-1-methyl-1H-indol-2-yl)(3,3-difluoroazetidin-1-yl)methanone]
140	> 10000	O=C(N1CCN(C2COC2)CC1)N1Cc2ccc(-c3nccc(Nc4ccc(-c5cn[nH]c5)cc4)n3)cc2C1 [TDI01555, (5-(4-((4-(1H-pyrazol-4-yl)phenyl)amino)pyrimidin-2-yl)isoindolin-2-yl)(4-(oxetan-3-yl)piperazin-1-yl)methanone]
175	2280	O=C(c1cc2ccc(-c3nccc(Nc4ccc(-c5cn[nH]c5)cc4)n3)cc2[nH]1)N1CCC2(CCN2)CC1 [TDI01464, (6-(4-((4-(1H-pyrazol-4-yl)phenyl)amino)pyrimidin-2-yl)-1H-indol-2-yl)(1,7-diazaspiro[3.5]nonan-7-yl)methanone]
64	3000	N#CC1CCN(C(=O)c2cc3ccc(-c4nccc(Nc5ccc(-c6cn[nH]c6)cc5)n4)cc3[nH]2)CC1 [TDI01445, 1-(6-(4-((4-(1H-pyrazol-4-yl)phenyl)amino)pyrimidin-2-yl)-1H-indole-2-carbonyl)piperidine-4-carbonitrile]
200	> 10000	COCn1c(C(=O)N2CC(F)(F)C2)cc2ccc(-c3nccc(Nc4ccc(-c5cn[nH]c5)cc4)n3)cc21 [TDI01920, (6-(4-((4-(1H-pyrazol-4-yl)phenyl)amino)pyrimidin-2-yl)-1-(methoxymethyl)-1H-indol-2-yl)(3,3-difluoroazetidin-1-yl)methanone]
26	> 10000	O=C(NC1CCN(c2ccncc2Cl)CC1)c1cc2ccc(-c3nccc(Nc4ccc(-c5cn[nH]c5)cc4)n3)cc2s1 [TDI01884, 6-(4-((4-(1H-pyrazol-4-yl)phenyl)-amino)-pyrimidin-2-yl)-N-(1-(3-chloropyridin-4-yl)piperidin-4-yl)benzo[b]-thiophene-2-carboxamide]
